According to paper PMC10019194, “Killing Two Birds with One Stone: Discovery of Dual Inhibitors of Oxygen and Fumarate Respiration in Zoonotic Parasite, Echinococcus multilocularis” (Antimicrobial Agents and Chemotherapy, 2023):
“Also recorded” adds a separate entry of the source. Like-named read-outs stand apart in the source and are kept apart here.

Experiments:
[1] = target: complex I (NADH:quinone reductase) (Echinococcus multilocularis, UniProt A0A068Y553+A0A068Y9L9+Q9TE76); test: NADH:quinone reductase activity (complex I) in protoscoleces mitochondrial fraction; format: biochemical; details: for IC50: E. multilocularis protoscoleces mitochondria, read-out: IC50 NADH:decyl rhodoquinone reductase (complex I)
Description: (§1) Cyst tissues containing E. multilocularis (Nemuro strain) protoscoleces isolated from infected hispid cotton rats, Sigmodon hispidus, were used. The tissues were shredded through a metal mesh (0.5 mm diameter). Then, the tissues were repeatedly suspended and washed with physiological saline in a tall beaker to obtain protoscoleces by exploiting the buoyancy difference between protoscoleces and other tissue ([26]). The obtained protoscoleces were homogenized with a motor-driven homogenizer to prepare the mitochondrial fraction. The homogenate was diluted with mitochondrial preparation buffer (210 mM mannitol, 10 mM sucrose, 1 mM disodium EDTA, and 50 mM Tris-HCl [pH 7.5]) supplemented with 10 mM sodium malonate to 5 times the volume of the original protoscolex homogenate, and then centrifuged at 800 × g for 10 min (4°C) to remove cell debris and nuclei. The supernatant was then centrifuged at 8,000 × g for 10 min (4°C) to obtain the mitochondrial pellet. Next, the pellet was resuspended in mitochondrial preparation buffer (without malonate) and centrifuged at 8,000 × g for 10 min (4°C). The enriched mitochondrial fraction was finally suspended in approximately 0.5 to 1.0 mL of mitochondrial preparation buffer without malonate and frozen at −50°C. The mitochondrial fraction from A. suum was prepared essentially as described previously ([27], [28]).
NADH:quinone reductase activity (complex I), succinate:quinone reductase activity (complex II), and succinate:cytochrome c reductase activity (complexes II to III) were measured using a UV-3000 spectrophotometer (Shimadzu, Kyoto, Japan) as described previously ([4], [6]). Briefly, all enzyme assays using mitochondrial fractions were performed in 0.5- or 1.0-mL reaction mixtures at 25°C. A freeze/thaw process was performed before the assay to ensure that the mitochondrial membrane was permeable to the solutes. The final mitochondrial protein concentration was 50 μg/mL. NADH:quinone reductase activity was measured in 50 mM potassium phosphate buffer (pH 7.4) containing 2 mM potassium cyanide, KCN (Sigma, St. […] The activity assay was started by the addition of 50 μM NADH (Fujifilm-Wako, Tokyo, Japan) and recorded as the rate of NADH consumption as monitored at 340 nm (ε = 6.2 mM^−1 cm^−1). The reagents used in the SQR activity assay were mixed with the reaction buffer containing 50 mM potassium phosphate (pH 7.4) and 0.1% (wt/vol) sucrose monolaurate (DOJINDO, Kumamoto, Japan). […] The reaction was initiated by the addition of 10 mM disodium succinate to the mixture. NADH:cytochrome c activity (complex I to III) was measured in the reaction buffer (30 mM potassium phosphate, 1 mM MgCl2, pH 7.5) containing 2 mM KCN, 50 μM cytochrome c (Nacalai Tesque, Kyoto, Japan), and the inhibitor. The assay was performed after the addition of 100 mM malonate to block complex II activity. The reaction was started by adding 50 μM NADH to the mixture, and the enzyme activity was determined by monitoring the change in absorbance of cytochrome c at 550 nm (ε = 19 mM^−1 cm^−1). IC50 values of AF and its derivatives against the specific activities of mitochondrial respiratory enzymes in protoscoleces were determined. The IC50 of each compound was determined by calculating approximation lines from three or more points on either side of the IC50 concentration.

[2] = target: complex II (succinate:quinone reductase, SQR) (Echinococcus multilocularis, UniProt A0A1Z4EAW8+A0A1Z4EAX0+A0A1Z4EAX1); test: Succinate:quinone reductase (SQR) activity (complex II) in protoscoleces mitochondrial fraction; format: biochemical
complex II (succinate:quinone reductase, SQR), sequence (A0A1Z4EAV8 entry or part of it): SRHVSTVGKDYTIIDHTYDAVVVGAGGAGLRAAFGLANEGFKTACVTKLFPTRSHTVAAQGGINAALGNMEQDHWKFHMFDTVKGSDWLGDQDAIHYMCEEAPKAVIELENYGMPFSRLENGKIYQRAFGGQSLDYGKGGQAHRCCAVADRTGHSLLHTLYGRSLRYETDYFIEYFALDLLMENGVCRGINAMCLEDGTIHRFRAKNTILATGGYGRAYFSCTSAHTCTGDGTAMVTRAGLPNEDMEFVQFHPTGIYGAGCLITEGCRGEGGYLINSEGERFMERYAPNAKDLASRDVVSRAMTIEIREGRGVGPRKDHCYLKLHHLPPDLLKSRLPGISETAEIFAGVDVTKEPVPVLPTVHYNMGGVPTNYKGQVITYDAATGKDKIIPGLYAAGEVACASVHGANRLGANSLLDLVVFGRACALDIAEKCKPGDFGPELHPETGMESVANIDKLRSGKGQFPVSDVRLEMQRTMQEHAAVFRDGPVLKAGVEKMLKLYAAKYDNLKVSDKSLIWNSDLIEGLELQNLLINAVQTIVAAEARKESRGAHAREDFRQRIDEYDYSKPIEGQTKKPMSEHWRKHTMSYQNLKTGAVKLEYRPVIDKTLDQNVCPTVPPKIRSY
complex II (succinate:quinone reductase, SQR), sequence (A0A1Z4EAX1 entry or part of it): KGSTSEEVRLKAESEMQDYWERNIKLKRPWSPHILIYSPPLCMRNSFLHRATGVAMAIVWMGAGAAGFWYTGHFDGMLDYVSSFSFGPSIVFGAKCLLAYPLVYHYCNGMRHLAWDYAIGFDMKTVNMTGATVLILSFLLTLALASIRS
complex II (succinate:quinone reductase, SQR), sequence (A0A1Z4EAX0 entry or part of it): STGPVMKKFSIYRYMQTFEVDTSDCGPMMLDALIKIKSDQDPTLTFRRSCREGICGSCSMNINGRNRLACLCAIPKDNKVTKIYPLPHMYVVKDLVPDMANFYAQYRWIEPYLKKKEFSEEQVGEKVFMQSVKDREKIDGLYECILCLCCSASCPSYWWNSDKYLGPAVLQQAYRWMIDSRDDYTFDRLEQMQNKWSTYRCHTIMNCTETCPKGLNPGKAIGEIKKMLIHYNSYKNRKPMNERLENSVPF
complex II (succinate:quinone reductase, SQR), sequence (A0A1Z4EAW8 entry or part of it): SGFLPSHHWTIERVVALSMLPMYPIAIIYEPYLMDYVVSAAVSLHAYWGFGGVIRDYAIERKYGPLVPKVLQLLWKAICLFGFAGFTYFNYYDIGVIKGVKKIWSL
Description: as §1
(§2) NADH:quinone reductase activity (complex I), succinate:quinone reductase activity (complex II), and succinate:cytochrome c reductase activity (complexes II to III) were measured using a UV-3000 spectrophotometer (Shimadzu, Kyoto, Japan) as described previously ([4], [6]). Briefly, all enzyme assays using mitochondrial fractions were performed in 0.5- or 1.0-mL reaction mixtures at 25°C. A freeze/thaw process was performed before the assay to ensure that the mitochondrial membrane was permeable to the solutes. The final mitochondrial protein concentration was 50 μg/mL. NADH:quinone reductase activity was measured in 50 mM potassium phosphate buffer (pH 7.4) containing 2 mM potassium cyanide, KCN (Sigma, St. Louis, MO, USA), and 60 μM decylubiquinone (Sigma). The activity assay was started by the addition of 50 μM NADH (Fujifilm-Wako, Tokyo, Japan) and recorded as the rate of NADH consumption as monitored at 340 nm (ε = 6.2 mM^−1 cm^−1). The reagents used in the SQR activity assay were mixed with the reaction buffer containing 50 mM potassium phosphate (pH 7.4) and 0.1% (wt/vol) sucrose monolaurate (DOJINDO, Kumamoto, Japan). SQR activity was determined by monitoring the change in absorbance of quinone at 278 nm (ε = 15 mM^−1 cm^−1) in the presence of 60 μM decylubiquinone, 2 mM KCN, and the inhibitor. The reaction was initiated by the addition of 10 mM disodium succinate to the mixture. NADH:cytochrome c activity (complex I to III) was measured in the reaction buffer (30 mM potassium phosphate, 1 mM MgCl2, pH 7.5) containing 2 mM KCN, 50 μM cytochrome c (Nacalai Tesque, Kyoto, Japan), and the inhibitor. The assay was performed after the addition of 100 mM malonate to block complex II activity. The reaction was started by adding 50 μM NADH to the mixture, and the enzyme activity was determined by monitoring the change in absorbance of cytochrome c at 550 nm (ε = 19 mM^−1 cm^−1). IC50 values of AF and its derivatives against the specific activities of mitochondrial respiratory enzymes in protoscoleces were determined. The IC50 of each compound was determined by calculating approximation lines from three or more points on either side of the IC50 concentration.

[3] = target: complex I and III (NADH:cytochrome c reductase) (Echinococcus multilocularis, UniProt Q9TE80); test: NADH:cytochrome c reductase activity (complex I to III) in protoscoleces mitochondrial fraction; format: biochemical
complex I and III (NADH:cytochrome c reductase), sequence (Q9TE80 entry or part of it): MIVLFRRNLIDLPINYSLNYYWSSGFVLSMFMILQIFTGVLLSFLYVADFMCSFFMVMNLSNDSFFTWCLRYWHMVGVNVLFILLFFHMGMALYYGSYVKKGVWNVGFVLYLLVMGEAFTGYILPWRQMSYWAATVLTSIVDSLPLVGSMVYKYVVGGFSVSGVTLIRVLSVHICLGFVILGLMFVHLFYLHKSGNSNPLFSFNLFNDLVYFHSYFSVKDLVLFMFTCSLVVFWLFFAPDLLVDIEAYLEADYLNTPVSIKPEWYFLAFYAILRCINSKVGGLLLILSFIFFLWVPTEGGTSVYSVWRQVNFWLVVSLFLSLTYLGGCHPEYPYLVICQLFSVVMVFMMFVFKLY
complex I and III (NADH:cytochrome c reductase), sequence (Q9GP40 whole entry, further chain): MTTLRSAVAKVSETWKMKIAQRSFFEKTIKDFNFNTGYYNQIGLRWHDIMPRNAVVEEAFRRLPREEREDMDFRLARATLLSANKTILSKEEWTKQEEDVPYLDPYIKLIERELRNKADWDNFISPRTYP
complex I and III (NADH:cytochrome c reductase), sequence (Q9TE76 entry or part of it, further chain): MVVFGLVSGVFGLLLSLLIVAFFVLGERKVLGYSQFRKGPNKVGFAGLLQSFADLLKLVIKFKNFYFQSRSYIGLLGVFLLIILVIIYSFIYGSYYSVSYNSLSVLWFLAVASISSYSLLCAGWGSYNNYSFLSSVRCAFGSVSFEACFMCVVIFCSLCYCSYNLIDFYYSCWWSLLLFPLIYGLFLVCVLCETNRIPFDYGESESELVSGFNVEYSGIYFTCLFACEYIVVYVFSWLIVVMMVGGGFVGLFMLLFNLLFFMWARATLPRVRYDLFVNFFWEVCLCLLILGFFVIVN
Description: as §1, §2

[4] = system: E. multilocularis protoscoleces; test: Ex vivo culture assay of live protoscoleces, viability by trypan blue exclusion; format: cell-based, Echinococcus multilocularis; details: 50 μM
Method: FIG 5 Viability of E. multilocularis protoscoleces in ex vivo culture assay. The E. multilocularis protoscoleces were treated with ascofuranone (AF) and its derivatives in culture under aerobic and anaerobic conditions (O2 <0.3%). Each compound was added to the culture medium at a final concentration of 50 μM. The control group was supplemented with 0.5% (vol/vol) dimethyl sulfoxide (DMSO). Atovaquone (ATV) was used as positive control and to ensure anaerobic conditions in the culture. The viability of protoscoleces was evaluated by their ability to exclude trypan blue. The data are presented as the mean ± standard deviation (n = 3).
The obtained protoscoleces were cultured in Connaught Medical Research Laboratories 1066 medium (Gibco, Grand Island, NY, USA) containing 0.5% (wt/vol) yeast extract (Difco Laboratories, Detroit, MI, USA), 2 mM L-glutamine (Gibco), 23 mM 4-(2-hydroxyethyl)-1-piperazineethanesulfonic acid, 0.5% (wt/vol) D (+)-glucose, 0.4 mM sodium taurocholate (Wako Pure Chemical Industries, Osaka, Japan), 57 mM sodium hydrogen carbonate, and 100 U/mL penicillin-streptomycin (Gibco). The protoscoleces were observed daily for seven consecutive days, and half of the medium was replaced on day 3. For anaerobic cultures, six-well plates were sealed in plastic containers with oxygen-detecting agents and oxygen scavengers (Aneromeito, Nissui Pharmaceutical, Tokyo, Japan) to keep the oxygen concentration below 0.3% at 37°C. The protoscoleces were treated with AF and its derivatives at a final concentration of 50 μM in the culture medium, and the duration of parasite elimination was investigated. The control group was supplemented with 0.5% (vol/vol) dimethyl sulfoxide (DMSO), and all conditions were assayed in triplicate. We used ATV in a culture assay as positive control and to ensure anaerobic conditions in the culture ([4], [5]). […] The viability of protoscoleces was determined after microscopic observation of more than 170 protoscoleces per well using the trypan blue exclusion test, as described previously ([4], [6], [33]).

[5] = IC50, E. multilocularis SQR inhibition, Table 5, furanone ring-substituted derivatives, mean ± SEM
[6] = IC50, inhibition of E. multilocularis SQR, Table 2, substitutions on the benzene group, mean ± SEM
[7] = IC50 Succinate:quinone reductase (SQR) (complex II), E. multilocularis protoscoleces mitochondria, mean ± SEM, Table 1
[8] = IC50 against E. multilocularis SQR, Table 3, various side chain lengths, mean ± SEM
[9] = E. multilocularis protoscoleces mitochondria; mean ± SEM; Table 1; read-out: IC50 NADH:cytochrome c reductase (complex I and III)
[10] = IC50, inhibition of E. multilocularis SQR, Table 4, different linker structures, mean ± SEM
[11] = IC50 against E. multilocularis complex II (SQR), figure legends, supplement

SMILES: C/C(=C\Cc1c(O)c(Cl)c(C)c(C=O)c1O)CC/C=C(\C)[C@@H]1CC(=O)C(C)(C)O1 [AF, Ascofuranone]
- inhibition of NADH:ubiquinone reductase activity of complex I [1]: not inhibited
- IC50 [1]: > 50 µM
- IC50 [2, 5]: 1.1 ± 0.21 µM
- IC50 [2, 6]: 1.1 ± 0.21 µM
- IC50 [2, 7]: 1.1 ± 0.21 µM
- IC50 ([3]; read-out: IC50 NADH:cytochrome c reductase (complex I and III); E. multilocularis protoscoleces mitochondria; mean ± SEM; Table 1): 0.057 ± 0.011 µM
- viability of protoscoleces during treatment ([4]; aerobic culture): progressively reduced
- viability / killing of protoscoleces during treatment ([4]; anaerobic culture (O2 <0.3%)): progressively reduced; also recorded: strong killing effect
- antiparasitic effect on protoscoleces in culture assay ([4]; both anaerobic and aerobic conditions): strong antiparasitic effect

SMILES: Cc1c(Cl)c(O)cc(O)c1C=O [Compound C0]
- IC50 [2, 8]: > 20 µM

SMILES: C/C=C/c1c(O)c(Cl)c(C)c(C=O)c1O [Compound C3]
- IC50 [2, 8]: 5.4 ± 0.7 µM

SMILES: CCC/C=C/c1c(O)c(Cl)c(C)c(C=O)c1O [Compound C5]
- IC50 [2, 8]: 3.3 ± 0.27 µM

SMILES: CCCCC/C=C/c1c(O)c(Cl)c(C)c(C=O)c1O [Compound C7]
- IC50 [2, 8]: 0.95 ± 0.27 µM

SMILES: CCCCCCC/C=C/c1c(O)c(Cl)c(C)c(C=O)c1O [Compound C9]
- IC50 [2, 8]: 1.2 ± 0.12 µM

SMILES: CCCCCCCC/C=C/c1c(O)c(Cl)c(C)c(C=O)c1O [Compound C10]
- IC50 [2, 8]: 1.2 ± 0.08 µM

SMILES: CCCCCCCCCC/C=C/c1c(O)c(Cl)c(C)c(C=O)c1O [Compound C12]
- IC50 [2, 8]: 1.7 ± 0.72 µM

SMILES: CC(C)=CCC/C(C)=C/CC/C(C)=C/Cc1c(O)c(Cl)cc(C=O)c1O [Compound D1]
- IC50 [1]: > 50 µM
- IC50 [2, 7]: 0.088 ± 0.013 µM
- IC50 [3, 9]: 0.274 ± 0.025 µM

SMILES: CC(=O)c1c(C)c(Cl)c(O)c(C/C=C(\C)CC/C=C(\C)CCC=C(C)C)c1O [Compound D3]
- IC50 [1]: > 50 µM
- IC50 [2, 7]: 0.135 ± 0.014 µM
- IC50 [3, 9]: 0.014 ± 0.002 µM

SMILES: CC(=O)c1c(C)c(Cl)c(O)c(C/C=C(\C)CCC=C(C)C)c1O [Compound D6]
- IC50 [2, 6]: 0.21 ± 0.022 µM

SMILES: CC(C)=CCC/C(C)=C/Cc1c(O)c(Cl)c(C)c(C=O)c1O [Compound D7]
- increase of SQR IC50 compared to D6 ([2]; 1-aldehyde (D7) vs 1-acetyl (D6)): 2 fold

SMILES: CC(C)=CCC/C(C)=C/Cc1c(O)cc(C)c(C=O)c1O [Compound D8]
- IC50 [2, 6]: > 10 µM

SMILES: COC(=O)c1c(C)c(Cl)c(O)c(C/C=C(\C)CCC=C(C)C)c1O [Compound D9]
- IC50 [2, 6]: > 10 µM

SMILES: C/C(=C\Cc1c(O)c(Cl)cc(C=O)c1O)CC/C=C(\C)C1CC(=O)C(C)(C)O1 (stereo not drawn) [Compound D10]
- IC50 [2, 6]: 0.55 ± 0.13 µM

SMILES: COc1c(Cl)c(C)c(C=O)c(O)c1C/C=C(\C)CC/C=C(\C)C1CC(=O)C(C)(C)O1 (stereo not drawn) [Compound D11]
- SQR inhibitory activity ([2]; 4-OH changed to methoxy): inhibitory activity was lost
- IC50 [2, 6]: > 10 µM

SMILES: CC(C)=CCC/C(C)=C/Cc1c(O)c(Cl)c(C)c(C=O)c1O [Compound D12]
- IC50 [2, 10]: 0.57 ± 0.03 µM

SMILES: Cc1c(Cl)c(O)c(CCC(C)CCCC(C)C)c(O)c1C=O (stereo not drawn) [Compound D13]
- IC50 [2, 10]: 0.28 ± 0.05 µM

SMILES: CCCCCC(C)CCc1c(O)c(Cl)c(C)c(C=O)c1O (stereo not drawn) [Compound D14]
- IC50 [2, 10]: 0.54 µM

SMILES: CCCCCCCCc1c(O)c(Cl)c(C)c(C=O)c1O [Compound D15]
- IC50 [2, 10]: 0.89 ± 0.11 µM

SMILES: C#CCOC/C(C)=C/CC/C(C)=C/Cc1c(O)c(Cl)c(C)c(C=O)c1O [Compound D16]
- IC50 [2, 5]: 0.258 ± 0.072 µM
- IC50 [2, 11]: 0.25 µM

SMILES: C/C(=C\Cc1c(O)c(Cl)c(C)c(C=O)c1O)CC/C=C(\C)COC(=O)C(C)(C)C [Compound D17]
- IC50 [2, 5]: 0.488 ± 0.015 µM
- IC50 [2, 11]: 0.48 µM

SMILES: C/C(=C\Cc1c(O)c(Cl)c(C)c(C=O)c1O)CC/C=C(\C)C(C)O (stereo not drawn) [Compound D18]
- IC50 ([2]; read-out: IC50, E. multilocularis SQR inhibition, Table 5, furanone ring-substituted derivatives, mean ± SEM): 3.77 ± 0.98 µM

SMILES: C/C(=C\CC/C(C)=C/Cc1c(O)c(Cl)c(C)c(C=O)c1O)CO [Compound D19]
- IC50 [2, 5]: > 10 µM
